In patent publication US20260294908A1, “NEUROACTIVE ANDROGEN RECEPTOR MODULATORS AND USE THEREOF” (priority 2023, published 2026):
Like-named read-outs stand apart in the source and are kept apart here.

How the values were obtained:
[1] = for metabolites detected after administration: high-resolution mass spectrometry; for metabolites detected after administration / concentration of metabolites in serum and brain (in words): metabolite = compound of Example 3; for concentration of the compound in serum and brain (in words): after administration
Procedure: • (1) The experimental protocol was referenced and complied with the National Institutes of Health Guide for the Care and Use of Laboratory Animals, and was approved by the Laboratory Animal Welfare and Ethics Committee of the Chinese Institute for Brain Research (CIBR). • (2) Wild-type male C57BL/6J mice, aged 6-7 weeks and weighing 18-22 grams, were used. The mice were housed in a constant-temperature incubator with a 12-hour light-dark cycle and free access to food and water. Food was withheld one day before the experiment, while free access to water was permitted. The mice were injected intraperitoneally with the test compound at a dose of 20 mg/kg. […] After sampling, the samples were immediately centrifuged at low speed to remove blood cells, and hemolysis was minimized as much as possible. After collection, the serum was sent to the mass spectrometry center for pretreatment. • (4) The brain tissue was rapidly dissected after treatment and frozen in liquid nitrogen for later use.
The sample (100 μL) was warmed to the room temperature, acetonitrile: methanol (500 μL, v/v=50:50) was added to the solution, and the sample was vortexed for 20 s. The sample was centrifuged at 5,000 g for 15 min at 4° C. Subsequently, 90% of the supernatant was transferred to a glass tube and concentrated at 45° C. for 1.5 h using a vacuum concentrator. The dried sample was reconstituted in 400 μL of acetonitrile and water mixture (v/v=50/50) and vortexed for 20 s. The resulting mixture was transferred to an EP tube and centrifuged at 5,000 g for 15 min at 4° C. The supernatant was filtered through a 0.22 μm filter and analyzed by LC-MS/MS.
The brain sample (100 mg) was thawed, transferred to a homogenizer tube containing three zirconia beads, and homogenized. After processing as described for the serum samples, the supernatant was then filtered through a 0.22 μm filter, and analyzed by LC-MS/MS.

androgen receptor = biological target: T1, androgen receptor (Homo sapiens, UniProt P10275); assay: cell-based; format: cell-based; settings: for Emax: HEK-293T, read-out: % relative efficacy
T1 construct: expressed in transfected cells; host or cells: HEK293T (ATCC, CRL-3216)
T1 sequence (P10275 whole entry): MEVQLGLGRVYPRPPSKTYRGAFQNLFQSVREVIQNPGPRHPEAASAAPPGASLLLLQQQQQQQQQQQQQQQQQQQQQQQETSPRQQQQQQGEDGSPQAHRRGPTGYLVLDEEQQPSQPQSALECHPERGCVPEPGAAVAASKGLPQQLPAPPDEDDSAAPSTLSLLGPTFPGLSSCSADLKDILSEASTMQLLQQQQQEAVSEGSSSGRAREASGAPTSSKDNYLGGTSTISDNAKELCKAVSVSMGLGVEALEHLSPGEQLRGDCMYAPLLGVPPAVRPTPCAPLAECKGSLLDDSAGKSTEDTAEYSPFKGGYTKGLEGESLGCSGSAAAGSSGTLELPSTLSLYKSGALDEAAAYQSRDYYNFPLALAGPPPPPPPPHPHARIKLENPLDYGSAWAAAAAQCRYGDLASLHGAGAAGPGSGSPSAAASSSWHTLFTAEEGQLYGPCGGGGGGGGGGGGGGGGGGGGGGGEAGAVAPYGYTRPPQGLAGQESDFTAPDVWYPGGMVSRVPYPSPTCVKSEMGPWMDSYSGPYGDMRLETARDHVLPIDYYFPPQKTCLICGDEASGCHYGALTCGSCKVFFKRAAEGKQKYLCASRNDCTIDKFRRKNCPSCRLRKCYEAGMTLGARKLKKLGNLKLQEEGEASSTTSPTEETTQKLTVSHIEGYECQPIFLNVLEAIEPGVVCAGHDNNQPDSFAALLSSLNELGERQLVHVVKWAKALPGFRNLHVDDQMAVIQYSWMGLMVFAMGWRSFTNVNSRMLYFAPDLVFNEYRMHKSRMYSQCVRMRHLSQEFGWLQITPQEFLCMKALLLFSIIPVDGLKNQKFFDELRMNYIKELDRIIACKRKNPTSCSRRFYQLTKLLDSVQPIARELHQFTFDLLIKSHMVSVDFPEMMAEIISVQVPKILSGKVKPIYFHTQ
Procedure: Androgen Receptor Reporter Gene Assay (AR Reporter Gene Assay)
This experiment was performed to investigate the agonistic activity of the compounds of the present disclosure on androgen receptors.
The EC50 was calculated according to the following formula: […]
X represents the logarithm of the activator concentration; Y represents the […]; Bottom represents the lowest plateau value of the curve; Top represents the highest plateau value of the curve; and Hillslope represents the slope of the curve.
The % relative effectiveness was calculated according to the following formula: […]
Activatedcmpd: mean activation value of the compound signal across the entire plate.
ActivatedAve_PC: mean activation value of the positive control across the entire plate.
ActivatedAve_VC: mean activation value of the vehicle control across the entire plate.

[2] = biological target: recombinant human androgen receptor (AR) protein (Homo sapiens, UniProt P10275); format: binding
Sequence of recombinant human androgen receptor (AR) protein (P10275 673-918): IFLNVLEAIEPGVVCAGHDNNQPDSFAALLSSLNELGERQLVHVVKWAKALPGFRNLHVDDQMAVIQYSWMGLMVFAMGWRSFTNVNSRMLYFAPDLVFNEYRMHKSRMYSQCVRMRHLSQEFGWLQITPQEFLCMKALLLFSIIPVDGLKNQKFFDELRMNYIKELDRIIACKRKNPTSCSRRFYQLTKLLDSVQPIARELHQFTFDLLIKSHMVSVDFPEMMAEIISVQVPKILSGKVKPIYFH

[3] = mouse, 20 mg/kg intraperitoneal

SMILES	metabolites detected after administration [1]	concentration of metabolites in serum and brain (in words) [1]	blood-brain barrier permeability (in words) [1, 3]	concentration of the compound in serum and brain (in words) ([1]; parent compound)	other results
C[C@@](COc1ccc(C#N)cc1)(OC(=O)CCCC[C@@H]1CCSS1)C(=O)Nc1cnc(C#N)c(C(F)(F)F)c1 [Ex. 15, (S)-1-((6-cyano-5-(trifluoromethyl)pyridin-3-yl)amino)-3-(4-cyanophenoxy)-2-methyl-1-oxopropyl-2-yl 5-((R)-1,2-dithiolan-3-yl) pentanoate]	–	–	–	–	metabolism (in words) ([1]; mouse, in vivo): may undergo rapid metabolic processes in vivo
CCC(=O)O[C@@](C)(COc1ccc(C#N)cc1)C(=O)Nc1cnc(C#N)c(C(F)(F)F)c1 [Ex. 28, (S)-1-((6-cyano-5-(trifluoromethyl)pyridin-3-yl)amino)-3-(4-cyanophenoxy)-2-methyl-1-oxopropan-2-yl-propionate]	detected	higher concentrations of metabolites	certain blood-brain barrier permeability	lower concentrations of the compound	–
C[C@](O)(COc1ccc(C#N)c(F)c1)C(=O)Nc1cnc(C#N)c(C(F)(F)F)c1 [Ex. 8, (S)-3-(4-cyano-3-fluorophenoxy)-N-(6-cyano-5-(trifluoromethyl)pyridin-3-yl)-2-hydroxy-2-methylpropionamide]	–	–	–	–	concentration detected in serum and brain (in words) ([1]; mouse, in vivo, ip, 20 mg/kg): certain concentrations of the compound were detected in serum and brain up to 72 h after administration; blood-brain barrier permeability (in words) ([1]; mouse, not told, ip, 20 mg/kg): good blood-brain barrier permeability
C[C@@](COc1ccc(C#N)cc1)(OC(=O)c1cccnc1)C(=O)Nc1cnc(C#N)c(C(F)(F)F)c1 [Ex. 13, (S)-1-((6-cyano-5-(trifluoromethyl)pyridin-3-yl)amino)-3-(4-cyanophenoxy)-2-methyl-1-oxopropan-2-yl nicotinate]	detected	higher concentrations of metabolites	certain blood-brain barrier permeability	lower concentrations of the compound	–
C[C@@](COc1ccc(Cl)nc1)(OC(=O)c1cccnc1)C(=O)Nc1cnc(C#N)c(C(F)(F)F)c1 [Ex. 30, (S)-1-((6-cyano-5-(trifluoromethyl)pyridin-3-yl)amino)-3-((6-chloropyridin-3-yl)oxy)-2-methyl-1-oxopropan-2-yl nicotinate]	–	–	–	–	Emax (androgen receptor): 14.5%
C[C@](O)(COc1cc(C(F)(F)F)ncn1)C(=O)Nc1cnc(C#N)c(C(F)(F)F)c1 [Ex. 1, (S)-N-(6-cyano-5-(trifluoromethyl)pyridin-3-yl)-2-hydroxy-2-methyl-3-((6-(trifluoromethyl)pyrimidin-4-yl)oxy)propionamide]	–	–	–	–	Affinity KD [2]: No binding
C[C@](O)(COc1ccc(C#N)nc1)C(=O)Nc1cnc(C#N)c(C(F)(F)F)c1 [Ex. 5, (S)-N-(6-cyano-5-(trifluoromethyl)pyridin-3-yl)-3-((6-cyanopyridin-3-yl)oxy)-2-hydroxy-2-methylpropionamide]	–	–	–	–	affinity to the androgen receptor proteins (in words) [2]: strong affinity; androgen receptor protein binding affinity and agonistic activity (in words) (androgen receptor): excellent androgen receptor protein binding affinity and agonistic activity
CC(C)C(=O)O[C@@](C)(COc1ccc(C#N)cc1)C(=O)Nc1cnc(C#N)c(C(F)(F)F)c1 [Ex. 21, (S)-1-((6-cyano-5-(trifluoromethyl)pyridin-3-yl)amino)-3-(4-cyanophenoxy)-2-methyl-1-oxopropan-2-yl isobutyrate]	detected	higher concentrations of metabolites	certain blood-brain barrier permeability	lower concentrations of the compound	–
C[C@](O)(COc1cc(C(F)(F)F)ncn1)C(=O)Nc1ccc(C#N)c(C(F)(F)F)c1 [Ex. 2, (S)-N-(4-cyano-3-(trifluoromethyl)phenyl)-2-hydroxy-2-methyl-3-((6-(trifluoromethyl)pyrimidin-4-yl)oxy)propionamide]	–	–	–	–	Affinity KD ([2]; Biacore T200, CM5 chip, human AR Ile673-His918 with N-terminal His Tag): No binding
C[C@](O)(COc1ccc(C#N)nc1)C(=O)Nc1ccc(C#N)c(C(F)(F)F)c1 [Ex. 4, (S)-N-(4-cyano-3-(trifluoromethyl)phenyl)-3-((6-cyanopyridin-3-yl)oxy)-2-hydroxy-2-methylpropionamide]	–	–	–	–	affinity to the androgen receptor proteins (in words) [2]: strong affinity
C[C@](O)(COc1ccc(C#N)cc1)C(=O)Nc1cnc(C#N)c(C(F)(F)F)c1 [Ex. 3, (S)-N-(6-cyano-5-(trifluoromethyl)pyridin-3-yl)-3-(4-cyanophenoxy)-2-hydroxy-2-methylpropionamide]	–	–	good blood-brain barrier permeability	–	affinity to the androgen receptor proteins (in words) [2]: strong affinity; concentration detected in serum and brain (in words) ([1]; up to 72 h, 20 mg/kg intraperitoneal, parent compound): certain concentrations of the compound were detected in serum and brain up to 72 h after administration; androgen receptor protein binding affinity and agonistic activity (in words) (androgen receptor): excellent androgen receptor protein binding affinity and agonistic activity
C[C@@](COc1ccc(C#N)cc1)(OC(=O)C1CCCC1)C(=O)Nc1cnc(C#N)c(C(F)(F)F)c1 [Ex. 22, (S)-1-((6-cyano-5-(trifluoromethyl)pyridin-3-yl)amino)-3-(4-cyanophenoxy)-2-methyl-1-oxopropan-2-yl cyclopentanecarboxylate]	detected	higher concentrations of metabolites	certain blood-brain barrier permeability	lower concentrations of the compound	Emax (androgen receptor): 2.3%
C[C@@](COc1ccc(C#N)cc1)(OC(=O)c1ccccc1)C(=O)Nc1cnc(C#N)c(C(F)(F)F)c1 [Ex. 26, (S)-1-((6-cyano-5-(trifluoromethyl)pyridin-3-yl)amino)-3-(4-cyanophenoxy)-2-methyl-1-oxopropan-2-yl benzoate]	detected	higher concentrations of metabolites	certain blood-brain barrier permeability	lower concentrations of the compound	affinity to the androgen receptor proteins (in words) [2]: strong affinity
CC(=O)O[C@@](C)(COc1ccc(C#N)cc1)C(=O)Nc1cnc(C#N)c(C(F)(F)F)c1 [Ex. 24, (S)-1-((6-cyano-5-(trifluoromethyl)pyridin-3-yl)amino)-3-(4-cyanophenoxy)-2-methyl-1-oxopropan-2-yl acetate]	detected	–	–	–	bioavailability in the brain (in words) ([1]; compared with Example 3): significantly improved; metabolism (in words) ([1]; in vivo, mouse): partially metabolized to the compound of Example 3; total concentration of parent drug and metabolites in the brain (in words) ([1]; mouse, in vivo): significantly higher
